Source: patent US6531305B1, “Sperm associated protein kinase polypeptides, corresponding nucleic acids, and methods of use” (University of Massachusetts, priority 1998, dated 2003)

Legend:
Assay in all cases: protein kinase blot: kinases renatured on the blot, labeling with [γ-32P]ATP
Format in all cases: biochemical
[1] = target: T1, ~Mr 40,000 band from sperm (Cs) (Ovis aries, UniProt Q9MZD9); conditions: demembranated ram sperm
T1 construct: Samples of demembranated sperm were dissolved in SDS-PAGE sample buffer; from tissue; host or cells: ejaculated, demembranated ram sperm
Procedure: (§1) Ejaculated sperm were -collected and washed and demembranated as described in San Agustin et al., Cell Motl. Cytoskel., 24:264-73, 1993. Samples of demembranated sperm were dissolved in SDS-PAGE sample buffer (10% glycerol, 3% SDS, 0.03% bromphenol blue, 50 mM DTT, 62.5 mM Tris-HCl, pH 6.8), and then electrophoresed in a 1.5-mm thick gradient gel (5-15%, 12×14 cm). Protein kinases were renatured on the blot and incubated in the presence of [γ−^32P]ATP using a protocol adapted from Ferrell and Martin, Methods Enzymol., 200:430-35, 1991 and described in San Austin et al., Methods Cell Biol., 47:135-40, 1995. Under these condition, bound kinases phosphorylated themselves or the blocking reagent. In some experiments, 1% poly(Glu,Tyr) 4:1, a tyrosine kinase substrate, was used as blocking solution in place of 5% BSA. […] Two prominent bands at ˜Mr 40,000 and 39,000 migrated slightly faster than porcine C (41 kDa). To determine if either of these was Cs, the incubation with [γ−^32P]ATP was carried out in the presence of PKI(5-24), a potent inhibitor of C, including ram Cs, activity. […] Labeling of the other bands was not affected by PKI(5-24).

porcine C = porcine C (Sus scrofa, UniProt P36887)
Procedure: as §1

[2] = tested on: other putative kinase bands of demembranated sperm; conditions: demembranated ram sperm
Procedure: as §1

- labeling of the ~Mr 40,000 band from sperm with [γ-32P]ATP in the presence of inhibitor [1]: completely and specifically blocked
- labeling of porcine C with [γ-32P]ATP in the presence of inhibitor (porcine C): completely and specifically blocked
- labeling of the other bands with [γ-32P]ATP in the presence of inhibitor [2]: not affected
Substance: PKI(5-24)
